{"source": "patent US11000555B2", "about": "“Method for preparing a limax compound and therapeutic use thereof” (GUANGXI JIUFU BIOTECHNOLOGY CO., LTD, priority 2017, dated 2021)", "key": {"rats": {"test_system": "rats", "test": "Physical dependence test: induced withdrawal test for the rats", "conditions": "rat, in vivo", "description": "The compound group was administered (ig) twice a day according to the dose increasing principle, at daily doses of 0.5, 1.0, 1.5, 2.0, 2.5, 3.0 g/kg. The dose was increased every day from 0.5 g/kg to 3.0 g/kg on day 6 which was adopted the same on day 7. The negative control group was given (ig) the same volume of vegetable oil per day at the same time and for the same times as the compound group. On day 8, the rats in each group were given naloxone (5 mg/kg, ip) to induce withdrawal, and the withdrawal status of the rats within 30 min and the weight change one hour before and after the inducement were observed. The evaluation criteria of withdrawal symptoms of rats were established by referring to the Tomoji Yanagita evaluation criteria and our pre-experimental results (see Appendix Table 17). The withdrawal scores and weight loss values of each group of rats were statistically processed. Weight loss value=weight before inducement−weight after inducement."}, "mice [1]": {"test_system": "mice", "test": "Mouse spontaneous activity test", "type": "in vivo, Kunming mice", "description": "Forty Kunming mice, half males and half females, were fasted for 12 h but free to drink water. The mice were randomly divided into four groups: a blank control group, a low does Compound group (0.4 g/kg, ig), a high dose Compound group (0.8 g/kg, ig) and a positive drug control group (Estazolam, 2 mg/kg). The mice were placed into the YLS-1A multifunctional recorder for spontaneous activities of small animals. After 5 minutes of adaptation, the number of the mice's spontaneous activities before administration were recorded, and the recording lasted for 10 minutes. The room was kept quiet during recording, at a room temperature of 20-24° C. After this, each group of mice was administered according to the above doses, and the number of spontaneous activities within 10 min were recorded 45 min later. The blank control group was given the same volume of normal saline (ig)."}, "mice [2]": {"test_system": "mice", "conditions": "mouse, in vivo; for Duration of mice staying in companion box: both, Kunming", "source_text": "A conditioned place preference box was composed of black and white cuboids (30 cm×15 cm×15 cm), a movable partition plate is arranged in the middle of the box body to divide the box into two cuboids of the same volume, and the rat and mice can freely move from one cuboid to another when the partition plate is removed. Inner surfaces of one cuboid of the box body except the glass panel is painted black, the bottom plate is made to be a rough surface by using a soft blanket, the other cuboid of the box body except the glass surface is painted white, the bottom plate is made to be a smooth surface, and the whole experimental box has visual and tactile cues.\nMice were tested for natural preference one day prior to dosing to eliminate mice with significant preference on one side of the box and to exclude the effects of unconditioned place preference on the experimental results.\nEach group of animals was administered twice daily at an interval of 8 hours (8:00, 16:00). […] The mice were placed in the white cuboid, which was the non-preferred side, after administration, and placed in the black cuboid, which was the preferred side, after administration of normal saline. The mice were kept in the box for 45 min, trained for 6 days. The place preference test was performed 24 h after the last administration. The partition plate of the preferred cuboid was removed, the mice were placed in the middle of the box one by one and observed for 15 minutes, and the duration of each of the mice staying in each cuboid was recorded on the basis of the positions of their heads."}, "mice [3]": {"test_system": "mice", "test": "Sleeping duration induced by a threshold dose of pentobarbital sodium", "type": "in vivo, Kunming mice", "conditions": "for Sleeping duration: pentobarbital sodium 50 mg/kg ip", "description": "Forty Kunming mice, half males and half females, were fasted for 12 h but free to drink water. The mice were randomly divided into four groups: a blank control group, a low does Compound group (0.4 g/kg, ig), a high dose Compound group (0.8 g/kg, ig) and a positive drug control group (Estazolam, 2 mg/kg). each group of mice was administered according to the above doses (ig), and the blank control group was given the same volume of normal saline. Forty-five minutes later, each mouse was given (ip) 50 mg/kg pentobarbital sodium, and then the sleeping duration of each group of mice was recorded (taking the disappear of righting reflex after administration as the indicator of falling asleep, and the recovery of righting reflex as the end time of the sleep)."}, "mice [4]": {"test_system": "mice", "test": "Oral acute toxicity test of mice (maximum dose method)", "type": "in vivo, Kunming mice", "conditions": "for Weight after dosing / Weight change: 14 days observation; for Weight before dosing: test group", "description": "The test group was given 10% the compound, 0.3 ml/10 g per dose, and the control group was given the same volume of vegetable oil. Each group was administered (ig) twice a day at 8:00 and 18:00, respectively, and fasting was completed three hours after the administration (ig). All the mice received the same volume of 0.3 ml/10 g per dose, amounting to 6 g/kg BW over 24 hours. The mice were given free access to water and food after administration. The body weight, food intake, water intake, general physiological indicators, behaviors and activities, psychological status and survival status were recorded for 14 days in consecutive, 3 times a day, after several times of observation within the 24 hours that followed the administration."}, "[5]": {"test_system": "morphine-induced place preference of mice", "test": "Conditioned place preference of morphine-induced mice", "type": "in vivo, Kunming mice", "description": "The mice were acclimatized for 3 days, the natural place preference time of the mice was measured before the administration, so that the mice with obvious preference on one cuboid of the experimental box were excluded to clear the effect of unconditional place preference on the results. […] The observation was conducted under sound insulation conditions. […] Thus, the white cuboid was used as the non-preferred side (i.e., the companion box).\nAfter 6 consecutive days of training and administration, the mice developed conditioned place preference.\nEach group was administered for 3 consecutive days."}, "[6]": {"conditions": "Female, 6 g/kg BW over 24 hours ig"}, "[7]": {"conditions": "Male, 6 g/kg BW over 24 hours ig"}}, "note": "Like-named read-outs stand apart in the source and are kept apart here. Marks after values point to notes of the source that are not given here.", "data": [{"smiles": "CC1(C)O[C@H]2CC[C@@]3(C)[C@@H]([C@@H](O)[C@H](O)[C@@H]3[C@@](C)(O)CC[C@@H]3OC(C)(C)[C@H]4CC[C@]3(C)O4)[C@]2(C)CC[C@H]1O", "note": "[the compound, limaxol A]", "values": [{"measurement": "Withdrawal symptoms after administration of the compound, rats", "setting": "rats", "value": "no obvious withdrawal symptoms"}, {"measurement": "Effect on spontaneous activity of mice", "setting": "mice [1]; 0.4, 0.8 g/kg, ig", "value": "significantly reduce the spontaneous activity of mice"}, {"measurement": "Number of spontaneous activities", "setting": "mice [1]; After administration (45 min), high dose 0.8 g/kg ig", "value": "84.8 ± 31.69*^Δ▴ per 10 min"}, {"measurement": "Number of spontaneous activities", "setting": "mice [1]; After administration (45 min), low dose 0.4 g/kg ig", "value": "104.6 ± 42.12^Δ▴▴ per 10 min"}, {"measurement": "Number of spontaneous activities", "setting": "mice [1]; Before administration, high dose group", "value": "145.5 ± 82.57", "unit": "per 10 min"}, {"measurement": "Number of spontaneous activities", "setting": "mice [1]; Before administration, low dose group", "value": "165.5 ± 69.20", "unit": "per 10 min"}, {"measurement": "Duration of mice staying in companion box", "setting": "mice [2]", "value": "334.8 ± 94.96", "unit": "s"}, {"measurement": "Duration of mice staying in companion box", "setting": "mice [2]; 6 days", "value": "385.2 ± 188.16", "unit": "s"}, {"measurement": "Psychological dependence, place preference test", "setting": "mice [2]", "value": "no tendency of psychological dependence"}, {"measurement": "Effect on sleeping duration induced by pentobarbital sodium", "setting": "mice [3]; 0.4, 0.8 g/kg, ig", "value": "significantly prolong the sleeping duration"}, {"measurement": "Sleeping duration", "setting": "mice [3]; high dose 0.8 g/kg ig", "value": "32.8 ± 9.56*^ΔΔ min"}, {"measurement": "Sleeping duration", "setting": "mice [3]; low dose 0.4 g/kg ig", "value": "39.5 ± 11.46**^Δ min"}, {"measurement": "Toxic reaction", "setting": "mice [4]; 6 g/kg BW over 24 hours ig, 14 days of observation", "value": "no toxic reaction occurred"}, {"measurement": "Weight after dosing", "setting": "mice [4]; [6]", "value": "24.99 ± 1.59", "unit": "g"}, {"measurement": "Weight change", "setting": "mice [4]; [6]", "value": "4.06 ± 2.34", "unit": "g"}, {"measurement": "Weight before dosing", "setting": "mice [4]; Female", "value": "20.93 ± 1.61", "unit": "g"}, {"measurement": "Weight after dosing", "setting": "mice [4]; [7]", "value": "26.60 ± 0.87", "unit": "g"}, {"measurement": "Weight change", "setting": "mice [4]; [7]", "value": "6.13 ± 1.46", "unit": "g"}, {"measurement": "Weight before dosing", "setting": "mice [4]; Male", "value": "20.73 ± 1.79", "unit": "g"}, {"measurement": "Visual observation of heart, liver, spleen, lung, kidney", "setting": "mice [4]; after putting to death, 14 days", "value": "no abnormality was found"}, {"measurement": "Maximum dose as multiple of the daily dose per the same body weight for a human adult", "setting": "mice [4]; human adult dose 0.02 g/kg", "value": 300, "unit": "times"}, {"measurement": "Maximum dose given the mice", "setting": "mice [4]; ig, twice within 24 hours, no death", "value": 6000, "unit": "mg/kg"}, {"measurement": "LD50", "setting": "mice [4]; mouse, in vivo, po", "value": "could not be detected"}, {"measurement": "Duration of mice staying in companion box", "setting": "[5]; After administration, high dose 0.8 g/kg ig 3 days + morphine 9 mg/kg sc, 15 min observation", "value": "511.8 ± 90.66*^ΔΔ s"}, {"measurement": "Duration of mice staying in companion box", "setting": "[5]; After administration, low dose 0.4 g/kg ig 3 days + morphine 9 mg/kg sc, 15 min observation", "value": "438.1 ± 116.45^#Δ s"}, {"measurement": "Duration of mice staying in companion box", "setting": "[5]; Before administration (base line), high dose 0.8 g/kg + morphine 9 mg/kg group", "value": "256.3 ± 114.43", "unit": "s"}, {"measurement": "Duration of mice staying in companion box", "setting": "[5]; Before administration (base line), low dose 0.4 g/kg + morphine 9 mg/kg group", "value": "296.0 ± 142.93", "unit": "s"}, {"measurement": "Effect on conditioned place preference of the morphine-induced mice", "setting": "[5]; two doses (0.4, 0.8 g/kg) ig for 3 days", "value": "no significant effect"}]}]}
